US6809119B2, “Branched chain amino acid-dependent aminotransferase inhibitors and their use in the treatment of neurodegenerative diseases” (Warner-Lambert Company LLC, priority 2001, dated 2004)

Legend:
[1] = target: T1, rat BCAT cytosolic form (rrBCATc) (Rattus norvegicus, UniProt P54690); test: In vitro coupled enzyme assay, rat BCAT cytosolic form; type: biochemical; details: inhibition of recombinant rat BCATc; coupled glutamate dehydrogenase/NADH assay, 37° C., pH 7.8
T1 construct: inferred from purification on a Ni-charged chelating column with imidazole elution; made in house; host or cells: E. coli BL21(DE3)
T1 sequence (P54690 1-411): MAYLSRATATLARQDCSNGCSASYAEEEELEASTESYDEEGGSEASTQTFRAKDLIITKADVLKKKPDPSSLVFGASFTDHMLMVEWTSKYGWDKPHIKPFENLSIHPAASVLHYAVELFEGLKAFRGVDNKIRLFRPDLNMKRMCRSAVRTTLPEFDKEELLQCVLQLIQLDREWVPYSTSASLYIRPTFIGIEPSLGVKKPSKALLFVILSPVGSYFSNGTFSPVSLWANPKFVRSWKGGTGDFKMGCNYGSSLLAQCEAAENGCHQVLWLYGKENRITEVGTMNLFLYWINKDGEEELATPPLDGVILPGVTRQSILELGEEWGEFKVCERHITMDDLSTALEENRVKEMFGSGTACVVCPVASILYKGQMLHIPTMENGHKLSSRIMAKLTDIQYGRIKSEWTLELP
Description: (§1) In vitro enzyme assay: human Branched Chain Amino Acid Aminotransferase cytosolic form (hBCATc) and mitochondrial form (hBCATm) as well as rat BCAT cytosolic form were assayed at 37° C. in 25 mM phosphate buffer pH 7.8. In addition, 2 mM DTT and 12.5 mM EDTA were added to the assay mixture. A coupling enzyme assay was used to monitor the production of glutamate. The formation of NADH from NAD+at […] was followed on a 96-well plate Molecular Devices plate reader. The following components were used in this coupled assay: 4 mM ADP, 1 mM NAD+, 750 μM L-Leucine, 500 μM a-ketoglutarate, 10 μM pyridoxal phosphate, 1 unit glutamate dehydrogenase, and 1.25 μg of the appropriate BCAT enzyme. Inhibitions by compounds were assayed by adding various concentrations to this coupled assay procedure as a DMSO stock up to a 5% v/v DMSO/buffer ratio.
(§2) Enzyme Preparation: humanBCATc and ratBCATc were expressed in BL21(DE3) cells. A growing culture of cells was induced with 1 mM IPTG at room temperature overnight. These cells were harvested by centrifugation at 10,000 g for 20 minutes. The supernatant was discarded, and the cells were stored at −80° C. until needed. The protein was purified by the following method. The cell paste was resuspended in extraction buffer (0.1 M phosphate, pH 8.0, with 0.01 M Tris-HCL and 5 mM TCEP and then lysed on a French Press at 1000 psi. The lysate was centrifuged at 10,000 g for 15 minutes, and the pellet was discarded. The supernatant was loaded onto a Hitrap Chelating column previously charged with 0.1 M NiSO4 and washed with 3 to 4 column volumes of extraction buffer. The column was then washed with 0.01 Tris, pH 7.5, 10% glycerol, 150 mM NaCl, 5 mM TCEP for two column volumes. The column was then further washed with two column volumes of 0.1 M phosphate, pH 6.0, 0.01 M Tris, 10% glycerol, and 750 mM NaCl. Finally, the column was washed with two column volumes of the same buffer plus 50 mM imidazole. The BCAT enzyme was then eluted with the same buffer but with 350 mM imidazole. The eluant was then dialyzed overnight against 10 mM phosphate buffer pH 8.0, 10% glycerol, and 5 mM TCEP. The dialyzed protein was then loaded onto a Q-sepharose column and eluted using a salt gradient. Active fractions were collected and further purified on a Superose-12 column to yield pure BCAT protein.

[2] = target: T2, human Branched Chain Amino Acid Aminotransferase cytosolic form (hBCATc) (Homo sapiens, UniProt P54687); test: In vitro coupled enzyme assay, human BCAT cytosolic form; type: biochemical; details: inhibition of recombinant human BCATc; coupled glutamate dehydrogenase/NADH assay, 37° C., pH 7.8; read-out: rhBCATc
T2 construct: inferred from purification on a Ni-charged chelating column with imidazole elution; made in house; host or cells: E. coli BL21(DE3)
T2 sequence (P54687 1-386): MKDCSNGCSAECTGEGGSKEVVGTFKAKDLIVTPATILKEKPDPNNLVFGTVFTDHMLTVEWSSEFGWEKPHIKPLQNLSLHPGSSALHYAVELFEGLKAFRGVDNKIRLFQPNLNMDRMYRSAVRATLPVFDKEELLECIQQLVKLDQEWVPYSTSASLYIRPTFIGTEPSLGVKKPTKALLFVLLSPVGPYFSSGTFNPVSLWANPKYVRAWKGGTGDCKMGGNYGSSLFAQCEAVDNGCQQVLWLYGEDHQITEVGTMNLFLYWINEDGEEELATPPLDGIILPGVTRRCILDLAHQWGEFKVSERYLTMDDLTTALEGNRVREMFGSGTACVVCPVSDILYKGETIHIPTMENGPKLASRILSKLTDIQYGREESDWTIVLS
Description: as §1, §2

Structure (SMILES)	IC50 [1] [µM]	melting point	IC50 [2] [µM]
O=C(NNS(=O)(=O)c1ccccc1)c1ccc(CCc2ccccc2)cc1 [Example 33, Phenethyl-benzoic acid, 2-(phenylsulfonyl)hydrazide]	0.25	158 to 159 °C	14.3
O=C(NNS(=O)(=O)c1ccccc1)c1ccc(-c2ccccc2)cc1 [Example 25, [1,1′-Biphenyl]-4-carboxylic acid, 2-(phenylsulfonyl)hydrazide]	1.5	216 to 219 °C	16
O=C(NNS(=O)(=O)c1ccccc1)c1ccc(C#CC2(O)CCCCC2)cc1 [Example 35]	2.2	96 to 97 °C	43.5
O=C(NNS(=O)(=O)c1ccccc1)c1ccc(NCc2ccccc2)cc1 [Example 16, 4-Benzylamino-benzoic acid 2-(phenylsulfonyl)hydrazide]	4.4	214 to 215 °C	27
Nc1ccc(C(=O)NNS(=O)(=O)c2ccccc2)cc1 [Example 2, Benzoic acid, 4-amino-2-(phenylsulfonyl)hydrazide]	28.1	171 to 173 °C	60
CC(C)(C)C#Cc1ccc(C(=O)NNS(=O)(=O)c2ccccc2)cc1 [Example 37, 4-(3,3-Dimethyl-1-butynyl)benzoic acid, 2-(phenylsulfonyl)hydrazide]	4.3	160 °C (dec.)	34.8
O=C(NNS(=O)(=O)c1ccccc1)c1ccc(C#Cc2ccccc2)cc1 [Example 32, 4-Phenacetylenyl-benzoic acid, 2-(phenylsulfonyl)hydrazide]	1.3	175 °C (dec.)	27.6
CC(C)(C)CCc1ccc(C(=O)NNS(=O)(=O)c2ccccc2)cc1 [Example 38, 4-(3,3-Dimethyl-1-butyl)-benzoic acid, 2-(phenylsulfonyl)hydrazide]	0.25	168 to 169 °C	9.5
O=C(NNS(=O)(=O)c1ccccc1)c1ccc(OCc2ccccc2)cc1 [Example 29]	48	159 to 160 °C	26
CC(C)(C)c1ccc(C(=O)NNS(=O)(=O)c2ccccc2)cc1 [Example 24, 4-(1,1-Dimethylethyl)-benzoic acid, 2-(phenylsulfonyl)hydrazide]	1.2	197 to 199 °C	57
